Our source for the IC50 values is patent US20100010219A1, “METHOD FOR PRODUCING PYRROLIDINE COMPOUND” (JAPAN TOBACCO INC., priority 2006, published 2010).

Counter-ions that a name gives are not always drawn.

The assay concerns the target T1, human HSD-1 (recombinant HSD-1) (Homo sapiens, UniProt P28845).
T1 construct: made in house
Briefly: HSD-1 activity inhibitory action in vitro (SPA, conversion of cortisone to cortisol). The format is biochemical. Particulars: recombinant human HSD-1 expressed using baculovirus system; 10 nM 3H cortisone, 500 μM NADPH; room temperature 90 to 120 min; read-out: hHSD1 (IC50 (nM)).

T1 sequence (P28845 whole entry): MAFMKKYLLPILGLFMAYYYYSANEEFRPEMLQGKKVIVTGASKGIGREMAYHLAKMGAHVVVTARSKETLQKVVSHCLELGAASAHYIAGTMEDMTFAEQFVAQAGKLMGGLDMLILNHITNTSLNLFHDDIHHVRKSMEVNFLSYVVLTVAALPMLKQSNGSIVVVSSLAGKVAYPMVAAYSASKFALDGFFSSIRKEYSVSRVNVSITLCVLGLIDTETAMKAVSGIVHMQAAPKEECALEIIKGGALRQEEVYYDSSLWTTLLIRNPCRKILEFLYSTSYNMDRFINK

With `O=C(NCC(F)(F)F)N1CCC(n2ncc(C(=O)N3CC[C@@H](c4ccccc4C(F)(F)F)C3)c2C2CC2)CC1` [Example 47, 1-{5-cyclopropyl-1-[1-(2,2,2-trifluoroethylcarbamoyl)piperidin-4-yl]-1H-pyrazole-4-carbonyl}-[(S)-3-(2-trifluoromethylphenyl)]pyrrolidine], the concentration for half-maximal inhibition (IC50) is below 30 nM.

Take `O=C(c1cnn(C2CCN(C(=O)N3CCS(=O)(=O)CC3)CC2)c1C1CC1)N1CC[C@@H](c2ccccc2C(F)(F)F)C1` [Example 12, 1-{5-cyclopropyl-1-[1-(1,1-dioxothiomorpholine-4-carbonyl)piperidin-4-yl]-1H-pyrazole-4-carbonyl}-[(S)-3-(2-trifluoromethylphenyl)]pyrrolidine]: the IC50 is below 30 nM.

Consider `O=C(Nc1ccccc1F)N1CCC(n2ncc(C(=O)N3CC[C@@H](c4ccccc4C(F)(F)F)C3)c2C2CC2)CC1` [Example 124, 1-{5-cyclopropyl-1-[1-(2-fluorophenylcarbamoyl)piperidin-4-yl]-1H-pyrazole-4-carbonyl}-[(S)-3-(2-trifluoromethylphenyl)]pyrrolidine], for which the IC50 is below 30 nM.

For the compound `NC(=O)C1CN(C(=O)N2CCC(n3ncc(C(=O)N4CC[C@@H](c5ccccc5C(F)(F)F)C4)c3C3CC3)CC2)C1` [Example 34, 1-{1-[1-(3-carbamoylazetidine-1-carbonyl)piperidin-4-yl]-5-cyclopropyl-1H-pyrazole-4-carbonyl}-[(S)-3-(2-trifluoromethylphenyl)]pyrrolidine], the IC50 was below 30 nM.

Regarding `NC(=O)N1CCC(n2ncc(C(=O)N3CC[C@@H](c4ccccc4C(F)(F)F)C3)c2C2CC2)CC1` [Example 4, 1-[1-(1-carbamoylpiperidin-4-yl)-5-cyclopropyl-1H-pyrazole-4-carbonyl]-[(S)-3-(2-trifluoromethylphenyl)]pyrrolidine], the IC50 was below 30 nM.

Turning to `O=C(c1cnn(C2CCN(C(=O)C3(CO)CC3)CC2)c1C1CC1)N1CC[C@@H](c2ccccc2C(F)(F)F)C1` [Example 78, 1-{5-cyclopropyl-1-[1-(1-hydroxymethylcyclopropanecarbonyl)piperidin-4-yl]-1H-pyrazole-4-carbonyl}-[(S)-3-(2-trifluoromethylphenyl)]pyrrolidine], the IC50 was below 30 nM.

With `N#Cc1ccc(N2CCC(n3ncc(C(=O)N4CCC(c5ccccc5C(F)(F)F)C4)c3C3CC3)CC2)nc1` (stereo not drawn) [Example 175, 1-{1-[1-(5-cyanopyridin-2-yl)piperidin-4-yl]-5-cyclopropyl-1H-pyrazole-4-carbonyl}-3-(2-trifluoromethylphenyl)pyrrolidine], the IC50 was below 30 nM.

Turning to `CC(C)(C(N)=O)N1CCC(n2ncc(C(=O)N3CC[C@@H](c4ccccc4C(F)(F)F)C3)c2C2CC2)CC1` [Example 96, 1-{1-[1-(1-carbamoyl-1-methylethyl)piperidin-4-yl]-5-cyclopropyl-1H-pyrazole-4-carbonyl}-[(S)-3-(2-trifluoromethylphenyl)]pyrrolidine hydrochloride], the IC50 was below 30 nM.

For `O=C(c1cnn(C2CCN(c3n[nH]c(CO)n3)CC2)c1C1CC1)N1CC[C@@H](c2ccccc2C(F)(F)F)C1` [Example 119, 1-{5-cyclopropyl-1-[1-(5-hydroxymethyl-4H-[1,2,4]triazol-3-yl)piperidin-4-yl]-1H-pyrazole-4-carbonyl}-[(S)-3-(2-trifluoromethylphenyl)]pyrrolidine hydrochloride], the IC50 is below 30 nM.

On to `O=C(N[C@H](CO)Cc1ccccc1)N1CCC(n2ncc(C(=O)N3CC[C@@H](c4ccccc4C(F)(F)F)C3)c2C2CC2)CC1` [Example 50, 1-(1-{1-[(S)-1-benzyl-2-hydroxyethylcarbamoyl]piperidin-4-yl}-5-cyclopropyl-1H-pyrazole-4-carbonyl)-[(S)-3-(2-trifluoromethylphenyl)]pyrrolidine], for which the IC50 is below 30 nM.

`NC(=O)c1ccc(N2CCC(n3ncc(C(=O)N4CCC(c5ccccc5C(F)(F)F)C4)c3C3CC3)CC2)nc1` (stereo not drawn) [Example 167, 1-{1-[1-(5-carbamoyl-pyridin-2-yl)piperidin-4-yl]-5-cyclopropyl-1H-pyrazole-4-carbonyl}-3-(2-trifluoromethylphenyl)pyrrolidine]: the IC50 was below 30 nM.

For the compound `O=C(c1cnn(C2CCN(c3ccc(CO)cc3)CC2)c1C1CC1)N1CCC(c2ccccc2C(F)(F)F)C1` (stereo not drawn) [Example 166, 1-{5-cyclopropyl-1-[1-(4-hydroxymethylphenyl)piperidin-4-yl]-1H-pyrazole-4-carbonyl}-3-(2-trifluoromethylphenyl)pyrrolidine], the IC50 is below 30 nM.

As to `O=C(O)c1ccc(N2CCC(n3ncc(C(=O)N4CCC(c5ccccc5C(F)(F)F)C4)c3C3CC3)CC2)cc1` (stereo not drawn) [Example 113, 4-(4-{5-cyclopropyl-4-[3-(2-trifluoromethylphenyl)pyrrolidine-1-carbonyl]pyrazol-1-yl}piperidin-1-yl)benzoic acid], the IC50 was below 30 nM.

In the case of `CC(C)N1CCN(C(=O)N2CCC(n3ncc(C(=O)N4CC[C@@H](c5ccccc5C(F)(F)F)C4)c3C3CC3)CC2)CC1` [Example 30, 1-{5-cyclopropyl-1-[1-(4-isopropylpiperazine-1-carbonyl)piperidin-4-yl]-1H-pyrazole-4-carbonyl}-[(S)-3-(2-trifluoromethylphenyl)]pyrrolidine hydrochloride], the IC50 was below 30 nM.

For `CC1(c2c(C(=O)N3CCC(c4cccnc4)C3)cnn2C2CCN(C(=O)N3CCc4ccccc43)CC2)CC1` (stereo not drawn) [Example 148, 1-{1-[1-(2,3-dihydroindole-1-carbonyl)piperidin-4-yl]-5-(1-methylcyclopropyl)-1H-pyrazole-4-carbonyl}-3-(pyridin-3-yl)pyrrolidine], the IC50 is below 30 nM.

With `CC1(c2c(C(=O)N3CCC(c4cccnc4)C3)cnn2C2CCN(C(=O)N3CCCCc4ccccc43)CC2)CC1` (stereo not drawn) [Example 151, 1-{5-(1-methylcyclopropyl)-1-[1-(2,3,4,5-tetrahydrobenzo[b]azepine-1-carbonyl)piperidin-4-yl]-1H-pyrazole-4-carbonyl}-3-(pyridin-3-yl)pyrrolidine], the IC50 is below 30 nM.

Turning to `CC(C)(CO)NC(=O)N1CCC(n2ncc(C(=O)N3CC[C@@H](c4ccccc4C(F)(F)F)C3)c2C2CC2)CC1` [Example 9, 1-{5-cyclopropyl-1-[1-(2-hydroxy-1,1-dimethylethylcarbamoyl)piperidin-4-yl]-1H-pyrazole-4-carbonyl}-[(S)-3-(2-trifluoromethylphenyl)]pyrrolidine], the IC50 is below 30 nM.

Consider `O=C(c1cnn(C2CCN(C(=O)N3CC(CO)C3)CC2)c1C1CC1)N1CC[C@@H](c2ccccc2C(F)(F)F)C1` [Example 28, 1-{5-cyclopropyl-1-[1-(3-hydroxymethylazetidine-1-carbonyl)piperidin-4-yl]-1H-pyrazole-4-carbonyl}-[(S)-3-(2-trifluoromethylphenyl)]pyrrolidine], for which the IC50 was below 30 nM.

For the compound `O=C(Nc1ccccc1F)N1CCC(n2ncc(C(=O)N3CCC(c4cccnc4)C3)c2C2CC2)CC1` (stereo not drawn) [Example 3, 1-{5-cyclopropyl-1-[1-(2-fluorophenylcarbamoyl)piperidin-4-yl]-1H-pyrazole-4-carbonyl}-3-(pyridin-3-yl)pyrrolidine], the IC50 was below 30 nM.

Regarding `CN(C)CCOC(=O)N1CCC(n2ncc(C(=O)N3CC[C@@H](c4ccccc4C(F)(F)F)C3)c2C2CC2)CC1` [Example 59, 1-{5-cyclopropyl-1-[1-(2-dimethylaminoethoxycarbonyl)piperidin-4-yl]-1H-pyrazole-4-carbonyl}-[(S)-3-(2-trifluoromethylphenyl)]pyrrolidine hydrochloride], the IC50 was below 30 nM.

As to `O=C(c1cnn(C2CCN(C(=O)C3(c4ccc(F)cc4)CC3)CC2)c1C1CC1)N1CC[C@@H](c2ccccc2C(F)(F)F)C1` [Example 66, 1-(5-cyclopropyl-1-{1-[1-(4-fluorophenyl)cyclopropanecarbonyl]piperidin-4-yl}-1H-pyrazole-4-carbonyl)-[(S)-3-(2-trifluoromethylphenyl)]pyrrolidine], the IC50 is below 30 nM.

Take `CC1(c2c(C(=O)N3CCC(CO)(c4cc(F)cc(F)c4)C3)cnn2C2CCN(c3ncccn3)CC2)CC1` (stereo not drawn) [Example 186, 3-(3,5-difluorophenyl)-3-hydroxymethyl-1-{5-(1-methylcyclopropyl)-1-[1-(pyrimidin-2-yl)piperidin-4-yl]-1H-pyrazole-4-carbonyl}pyrrolidine hydrochloride]: the IC50 is below 30 nM.

In the case of `CC1(NC(=O)N2CCC(n3ncc(C(=O)N4CC[C@@H](c5ccccc5C(F)(F)F)C4)c3C3CC3)CC2)CC1` [Example 126, 1-{5-cyclopropyl-1-[1-(1-methylcyclopropylcarbamoyl)piperidin-4-yl]-1H-pyrazole-4-carbonyl}-[(S)-3-(2-trifluoromethylphenyl)]pyrrolidine], the IC50 was below 30 nM.

On to `O=C(Nc1ccccc1F)N1CCC(n2ncc(C(=O)N3CCC(c4cccnc4Cl)C3)c2C2CC2)CC1` (stereo not drawn) [Example 137, 3-(2-chloropyridin-3-yl)-1-{5-cyclopropyl-1-[1-(2-fluorophenylcarbamoyl)piperidin-4-yl]-1H-pyrazole-4-carbonyl}pyrrolidine], for which the IC50 was below 30 nM.

For the compound `O=C(c1cnn(C2CCN(C(=O)N3CC(F)(F)C(F)(F)C3)CC2)c1C1CC1)N1CC[C@@H](c2ccccc2C(F)(F)F)C1` [Example 48, 1-{5-cyclopropyl-1-[1-(3,3,4,4-tetrafluoropyrrolidine-1-carbonyl)piperidin-4-yl]-1H-pyrazole-4-carbonyl}-[(S)-3-(2-trifluoromethylphenyl)]pyrrolidine], the 50% inhibitory concentration (IC50) was below 30 nM.

`CC(C(N)=O)N1CCC(n2ncc(C(=O)N3CC[C@@H](c4ccccc4C(F)(F)F)C3)c2C2CC2)CC1` (stereo partly drawn) [Example 103, 1-{1-[1-(1-carbamoylethyl)piperidin-4-yl]-5-cyclopropyl-1H-pyrazole-4-carbonyl}-[(S)-3-(2-trifluoromethylphenyl)]pyrrolidine hydrochloride]: the half-inhibitory concentration (IC50) is below 30 nM.

In the case of `CN/C(=N\C#N)N1CCC(n2ncc(C(=O)N3CC[C@@H](c4ccccc4C(F)(F)F)C3)c2C2CC2)CC1` [Example 111, 1-(1-{1-[cyanoimino(methylamino)methyl]piperidin-4-yl}-5-cyclopropyl-1H-pyrazole-4-carbonyl)-[(S)-3-(2-trifluoromethylphenyl)]pyrrolidine], the IC50 is below 30 nM.

What is called IC50 is the concentration that gives 50% inhibition.
